Assay results: patent US12466818B2, “Thienyl-aniline compounds for treatment of dermal disorders” (NFlection Therapeutics, Inc., priority 2018, dated 2025)

Experiments:
[1] = Assay 6: liver microsomes half-life stability assay; assay type: in vitro ADME; settings: pH 7.4; human liver microsomes, 1 μM test compound, NADPH
Protocol: Metabolic stability of testing compound can be evaluated using human liver microsomes to predict intrinsic clearance. Human liver microsomes are obtained from Corning Gentest.
The assay was carried out in 96-well microtiter plates at 37° C. Reaction mixtures (25 μL) contain a final concentration of 1 μM test compound, 0.5 mg/mL liver microsomes protein, and 1 mM NADPH in buffer (100 mM potassium phosphate, pH 7.4 buffer with 3 mM MgCl2). At each of the time points (0, 15, 30, and 60 minutes), 150 μL of quench solution (100% acetonitrile with 0.1% formic acid) with internal standard was transferred to each well. Verapamil was included as a positive control to verify assay performance. Plates were sealed and centrifuged at 4° C. for 15 minutes at 4000 rpm. The supernatant was transferred to fresh plates for LC/MS/MS analysis.
(§1) All samples were analyzed on LC/MS/MS using an AB Sciex API 4000 instrument, coupled to a Shimadzu LC-20AD LC Pump system. […]
The extent of metabolism was calculated as the disappearance of the test compound, compared to the 0-min time incubation. Initial rates were calculated for the compound concentration and used to determine t1/2 values and subsequently, the intrinsic clearance, CLint=(0.693)(1/t1/2 (min))(g of liver/kg of body weight)(mL incubation/mg of microsomal protein)(45 mg of microsomal protein/g of liver weight). […]

[2] = Assay 4: liver S9 half-life stability assay; assay type: in vitro ADME; settings: liver S9 fraction, pH 7.4; human liver S9, 1 μM test compound, NADPH
Protocol: Compounds can be assessed for metabolic stability in human skin by assessing their rate of disappearance from human S9 skin fraction. Similarly, compounds can be assessed for metabolic stability in human liver by assessing their rate of disappearance from human S9 liver fraction. The protocol below is used to assess the difference between skin and hepatic metabolism.
The assay was carried out in 96-well microtiter plates at 37° C. Reaction mixtures (25 μL) contained a final concentration of 1 μM test compound, 2 mg/mL liver or skin protein, and 1 mM NADPH in buffer (100 mM potassium phosphate, pH 7.4 buffer with 1 mM EDTA, 3 mM MgCl2). At each of the time points (0, 15, 30, and 60 minutes), 150 μL, of quench solution (100% acetonitrile with 0.1% formic acid) with internal standard was transferred to each well. […]
as §1
The extent of metabolism was calculated as the disappearance of the test compound, compared to the 0-min control reaction incubations. Initial rates were calculated for the compound concentration and used to determine tin values and subsequently, the intrinsic clearance, CLint=(0.693)(1/t1/2 (min)) (mL incubation/mg of S9 protein). […]

[3] = test system: HCT116 cells; test: Assay 3: HCT116 (Kras) GI50 assay (Cell Titer-Glo); assay type: cell-based; settings: Homo sapiens, HCT-116, 72 hours
Protocol: (§2) Alternatively, the following procedure can be used to measure cell-based activity. Test compounds were dissolved in DMSO in 10 mM stock. Cell Titer-Glo® 2.0 Luminescent cell viability assay reagent was purchased from Promega (Madison, WI). A375 and HCT116 cell lines were purchased from American Type Culture Collection (Manassas, VA). For A375 cells, cell culture media was DMEM+10% FBS. For HCT116 cells, cell culture media was McCoy's 5A+10% FBS. All media were supplemented with 100 μg/mL of penicillin, and 100 μg/mL of streptomycin. Cultures were maintained at 37° C. in a humidified atmosphere of 5% CO2 and 95% air.
(§3) Test compounds were diluted in DMSO solution with 10-dose and 3-fold dilutions in a source plate starting at 10 mM. 25 nL of each test compound was delivered from the source plate to each well of the 384-well cell culture plates (T=Final) by Echo 550. 25 μL of culture medium containing 2000 of A375 or HCT116 cells was added to each of the wells in duplicates of the cell culture plates (T=0 and T=Final). 25 μL of Cell Titer Glo 2.0 reagent was added to each well of cell culture plate (T=0). The contents were mixed on an orbital shaker for 2 min and incubated at room temperature for 15 min to stabilize luminescent signal. Luminescence was recorded by Envision 2104 Multilabel Reader (PerkinElmer, Santa Clara, CA). The number of viable cells in culture was determined based on quantitation of the ATP present in each culture well. The cells in cell culture plate (T=Final) were incubated with the compounds at 37° C., 5% CO2 for 72 hours. 25 μL of Cell Titer Glo 2.0 reagent was added to each well. The contents were mixed on an orbital shaker for 2 min and incubated at room temperature for 15 min to stabilize luminescent signal. Luminescence was recorded by Envision 2104 Multilabel Reader (PerkinElmer, Santa Clara, CA). The number of viable cells in culture was determined based on quantitation of the ATP present in each culture well. The GI50 curves were plotted using the GraphPad Prism 4 program based on a sigmoidal dose-response equation Y=Bottom+(Top-Bottom)/(1+10^((Log EC50−X)*HillSlope)). All parameters in the equation were calculated by GraphPad Prism 4 program. […] Accordingly, GI50 is the value of 10^X, where X was calculated by the Curve Fitting Equation when Y=50 using Excel.
Assay 3 is the HCT116 (Kras) GI50 (nM) assay as described in Example 39. A3 indicates an IC50 of less than or equal to 5 μM, and B3 indicates an IC50 of greater than 5 μM and less than or equal to 10 μM.

[4] = test system: A375 cells; test: Assay 2: A375 (BRAF) GI50 cell-based assay (Cell Titer-Glo); settings: Homo sapiens, A-375, 72 hours
Protocol: as §2, §3
Assay 2 is the A375 (BRAF) GI50 (nM) cell-based assay as described in Example 39. A2 indicates an IC50 of less than or equal to 1 μM, and B2 indicates an IC50 of greater than 1 μM and less than or equal to 2 μM.

For `O=C1CCCc2c1sc(Nc1ccc(I)cc1F)c2C(=O)NOCCO` [Compound 1.029, 2-((2-Fluoro-4-iodophenyl)amino)-N-(2-hydroxyethoxy)-7-oxo-4,5,6,7-tetrahydrobenzo[b]thiophene-3-carboxamide], the half-life at 1 μM [1] was ≤ 50 min, the half-life at 1 μM [2] was 50 to 100 min and the GI50 [3] was ≤ 5 µM. The GI50 [4] was ≤ 1 µM.
